For 3 compounds, MIC and Activity results are on record in ChEMBL document CHEMBL1144152, “Oceanapiside, an antifungal bis-alpha,omega-amino alcohol glycoside from the marine sponge Oceanapia phillipensis” (1999).

The term MIC denotes the smallest concentration in the dilution series that meets the test's criterion for growth inhibition. High values mean a less susceptible organism, low ones a more susceptible organism.

The structures appear in SMILES notation. Converted amounts (≈) assume the structure as drawn. The source made the active and inactive calls.

The test system of one experiment is Nakaseomyces glabratus. The experiment is described as follows: Antifungal activity against fluconazole-resistant Candida glabrata by broth dilution method. Format: functional. In general terms: Dilution methods test growth across graded concentrations, often in twofold steps.
Experiment [1] deals with Candida albicans. The experiment in a line: Antifungal activity against Candida albicans ATCC 14503. It is filed as functional, organism-based.
A further experiment has as its system Pichia kudriavzevii. The experiment in a line: Antifungal activity against Candida krusei. It is filed as functional, organism-based.
The test system of experiment [2] is Candida albicans. The experiment is described as follows: Antifungal activity against fluconazole-resistant Candida albicans 96-489. It is filed as functional, organism-based.
Experiment [3] concerns Candida albicans. The experiment in a line: Antifungal activity against fluconazole-resistant Candida albicans UCD-FR1. Format: functional, organism-based.

Compound `C[C@@H]1[C@H](O)[C@@H](C)/C=C/C=C/C=C/C=C/C=C/C=C/C=C/[C@H](O[C@@H]2O[C@H](C)[C@@H](O)[C@H](N)[C@@H]2O)C[C@@H]2O[C@](O)(C[C@@H](O)C[C@@H](O)[C@H](O)CC[C@@H](O)C[C@@H](O)CC(=O)O[C@H]1C)C[C@H](O)[C@H]2C(=O)O` [AMPHOTERICIN B] showed a minimum inhibitory concentration (MIC) in the experiment on Nakaseomyces glabratus of 1 µg/mL (≈ 1.08 µM).

Take `C[C@@H](N)[C@H](O)CCCCCCCCCCCCCCC(=O)CCCCCCC[C@@H](O[C@@H]1O[C@H](CO)[C@@H](O)[C@H](O)[C@H]1O)[C@@H](N)CO`: the result in the experiment with Candida albicans [1], with Pichia kudriavzevii, in the experiment on Candida albicans [2] and with Candida albicans [3] was inactive. In the experiment with Nakaseomyces glabratus, this compound yielded an MIC of 10 µg/mL (≈ 15.4 µM).

`C[C@@H](N)[C@H](O)CCCCCCCCCCCCCCC(=O)CCCCCCC[C@@H](O)[C@@H](N)CO` had a minimal inhibitory concentration (MIC) in the experiment on Nakaseomyces glabratus of 3 µg/mL (≈ 6.16 µM).
